{"source": "patent US12637415B2", "about": "“Lyophilized composition comprising (s)-isopropyl 2-((s)-2-acetamido-3-(1H-indol-3-yl)propanamido)-6-diazo-5-oxohexanoate for intravenous administration and the use thereof” (DRACEN PHARMACEUTICALS, INC., priority 2019, dated 2026)", "format_in_all_cases": "physicochemical", "key": {"[1]": {"assay": "Study Number 3: in-use stability in polyolefin containers after 50% ethanol reconstitution, 4 hour hold plus 1 hour infusion (HPLC)", "experimental": "(§1) The purity and concentration of Compound 1 as measured by HPLC were determined during a 5 hour test period while the drug product was held in a non-DEHP (polyolefin) clinical containers over a range of concentrations in 500 mL containers. Admixed containers were delivered with an […] infusion set by holding the infusion bag with diluted test article for 4 hours prior to a 1 hour infusion to assess in use stability over a total of 5 hours to mimic clinical practice. The parameters of the study were: • Compound 1 dose: 6 mg and 120 mg in 500 mL • Concentration range: 0.012-0.24 mg/mL Compound 1 • Container size: 500 mL • Diluent: 0.9% normal saline, USP • Stability time points: 0 hours, 4 hours (pre-infusion), 5 hours (post-1 hour infusion) • Storage condition: room temperature (15-25° C.) • Container composition: non-DEHP (polyolefin) • Light conditions: amber IV bag covers to limit UV exposure • Reconstitution: 50% (v/v) ethanol for reconstitution of the lyophilate, followed by dilution into normal saline."}, "[2]": {"assay": "Compounding (dissolution) of pre-lyophilization solutions comprising Compound 1", "experimental": "Third, Compound 1 was dissolved in the solution at 30° C. After dissolution, the solution was cooled to room temperature (20-22° C.). Experiments were conducted to study the compounding and holding of pre-lyophilization solutions comprising Compound 1."}, "[3]": {"assay": "Study Number 2: in-use stability in PVC and polyolefin containers, 4 hour hold plus 1 hour infusion (HPLC)", "experimental": "as §1, with “in polyvinyl chloride (PVC) and non-PVC,” for “in a”, “and 150” for “and 120”, “range: 0.012-0.3” for “range: 0.012-0.24”, “composition: polyvinyl chloride and non-PVC,” for “composition:”, “conditions: ambient light vs” for “conditions:”, “Reconstitution: 80%” for “Reconstitution: 50%”"}, "[4]": {"assay": "Holding of compounded sterile filtered pre-lyophilization solutions (precipitation)", "conditions": "for Precipitation in held pre-lyophilization solution: 24 h; for Precipitation post filtration: vials stored at 17° C., 20° C., 22° C., or 25° C. for 24 h", "experimental": "Experiments were conducted to study the compounding and holding of pre-lyophilization solutions comprising Compound 1.\nVials of the compounded sterile filtered pre-lyophilization solutions were held at 17° C., 20° C., 22° C., and 25° C."}, "[5]": {"assay": "Study Number 1: in-use stability diluted in normal saline in PVC containers (HPLC purity and concentration, 24 hour)", "conditions": "for Time stable at room temperature: 0.012-0.3 mg/mL diluted in normal saline in PVC containers", "experimental": "The purity and concentration of Compound 1 as measured by HPLC were determined during a 24 hour test period while the drug product was held in its diluted state in normal saline in a polyvinyl chloride (PVC) clinical containers over a range of concentrations in 500 mL bags. The parameters of the study were: • Compound 1 dose: 6 mg and 150 mg in 500 mL • Concentration range: 0.012-0.3 mg/mL Compound 1 • Container size: 500 mL • Diluent: 0.9% normal saline, USP • Stability time points: 0, 4, 8, 24 hours • Storage condition: room temperature (15-25° C.) • Container composition: polyvinyl chloride • Light conditions: ambient light vs amber IV bag covers to limit UV exposure • Reconstitution: 80% (v/v) ethanol for reconstitution of the lyophilate, followed by dilution into normal saline."}}}
{"smiles": "CC(=O)N[C@@H](Cc1c[nH]c2ccccc12)C(=O)N[C@@H](CCC(=O)C=[N+]=[N-])C(=O)OC(C)C", "note": "[Compound 1, (S)-isopropyl 2-((S)-2-acetamido-3-(1H-indol-3-yl)propanamido)-6-diazo-5-oxohexanoate]", "values": [{"measurement": "Appearance of diluted samples", "setting": "[1]; 0.012-0.24 mg/mL in normal saline, polyolefin, room temperature, through 5 hours, 50% ethanol reconstitution", "value": "remained clear"}, {"measurement": "Impurity testing (HPLC)", "setting": "[1]; all time points (0, 4, 5 hours), polyolefin, amber cover", "value": "no impurities at any time point"}, {"measurement": "Time stable at room temperature", "setting": "[1]; followed by a 1 hour infusion, amber shroud, polyolefin containers, PVC or low-sorb tubing, 0.012-0.24 mg/mL in normal saline", "value": "up to 4 hours"}, {"measurement": "Dissolution time", "setting": "[2]; Exp 2: excipients and Compound 1 15 mg/mL at 25° C., single vessel", "value": ">6.5 h (estimated at"}, {"measurement": "Dissolution time (estimated)", "setting": "[2]; Exp 2: excipients and Compound 1 15 mg/mL at 25° C., single vessel, estimated", "value": "~9.5", "unit": "h"}, {"measurement": "Dissolution of Compound 1 in ethanol and t-butanol (organic dissolution)", "setting": "[2]; Exp 3: 15 mg/mL, two vessels (separate aqueous and organic), 25° C. stepped up to 35° C.", "value": "remains as solid even at"}, {"measurement": "Dissolution time", "setting": "[2]; Exp 3: 15 mg/mL, two vessels, after mixing aqueous and organic portions, held at the temperature of the organic phase", "value": 1.25, "unit": "h"}, {"measurement": "Dissolution time", "setting": "[2]; Exp 4: excipients and Compound 1 15 mg/mL at 30° C., single vessel", "value": "Dissolution time: 5 h"}, {"measurement": "Dissolution time", "setting": "[2]; Exp 5: excipients and Compound 1 12.5 mg/mL at 30° C., single vessel", "value": 3.66, "unit": "h"}, {"measurement": "Dissolution time", "setting": "[2]; Exp 6: excipients and Compound 1 10 mg/mL at 30° C., single vessel", "value": 1.75, "unit": "h"}, {"measurement": "Appearance of diluted samples", "setting": "[3]; 0.012-0.3 mg/mL in normal saline, PVC and polyolefin, room temperature, through 5 hours", "value": "remained clear"}, {"measurement": "Impurity testing (HPLC)", "setting": "[3]; ambient light vs amber cover, 4 hours and 1 hour post infusion compared to baseline", "value": "greater impurities under ambient light with an increase in impurities observed over the course of the experiment"}, {"measurement": "Time stable at room temperature", "setting": "[3]; followed by a 1 hour infusion, amber shroud, polyolefin containers, low-sorb tubing, 0.012-0.3 mg/mL in normal saline", "value": "up to 4 hours"}, {"measurement": "Precipitation in held pre-lyophilization solution", "setting": "[4]; 17° C., 10 mg/mL", "value": "remain free of precipitation"}, {"measurement": "Precipitation in held pre-lyophilization solution", "setting": "[4]; 17° C., 12.5 mg/mL", "value": "remain free of precipitation"}, {"measurement": "Time to precipitation of pre-lyophilization solution", "setting": "[4]; 17° C., 15 mg/mL", "value": "occurs within 1 h at 15 mg/mL."}, {"measurement": "Precipitation post filtration (observed or not)", "setting": "[4]; Exp 4: 15 mg/mL, sterile filtered, vial held at 17° C., at 1 h", "value": "observed in vial held"}, {"measurement": "Precipitation post filtration", "setting": "[4]; Exp 5: 12.5 mg/mL", "value": "No precipitation"}, {"measurement": "Precipitation post filtration", "setting": "[4]; Exp 6: 10 mg/mL", "value": "No precipitation"}, {"measurement": "Appearance of diluted samples", "setting": "[5]; 0.012-0.3 mg/mL in normal saline, PVC, room temperature, through 24 hours", "value": "remained clear"}, {"measurement": "Time stable at room temperature", "setting": "[5]; amber covered shroud protected from light", "value": "up to 24 hours"}, {"measurement": "Impurity testing (HPLC)", "setting": "[5]; ambient light vs amber cover, 0-24 hours, PVC container", "value": "greater impurities under ambient light with an increase in impurities observed over the course of the experiment"}, {"measurement": "Time stable at room temperature", "setting": "[5]; ambient light", "value": "up to 8 hours"}]}
